Source: ChEMBL document CHEMBL4261616, “Discovery of heterocyclic replacements for the coumarin core of anti-tubercular FadD32 inhibitors” (Bioorg Med Chem Lett, 2018)
Values after ≈ are worked out from the molar mass of the structure shown.

Tested on: Mycobacterium tuberculosis
Assay: Antimycobacterial activity against Mycobacterium tuberculosis H37Rv harboring FadD32 mutant after 6 days by resazurin dye based fluorescence assay
Format: functional

`Cc1cc2nccc(-c3ccccc3)c2c(C)c1-c1ccc(CN2CCOCC2)cc1` showed an MIC90 of 15.6 µM (≈ 6.37 µg/mL).

`CNC(=O)c1cc(-c2ccccc2Cl)c2c(C)c(-c3ccncc3)c(C)cc2n1` was tested, and the MIC90 was 6.25 µM (≈ 2.51 µg/mL).
